Laboratory results reported in patent publication US4882322A, “3β,17β-hydroxy-substituted steroids and related steroidal compounds” (Merrell Dow Pharmaceuticals Inc., priority 1988, dated 1989).
Like-named read-outs stand apart in the source and are kept apart here.

Experiments:
[1] = target: T1, JAr Tumor Aromatase (Homo sapiens, UniProt P11511); assay: Time-dependent JAr tumor aromatase activity (in vitro inhibition; 3H2O release from 1-[3H]-androstenedione, cytosol of JAr tumor); type: biochemical; conditions: for inhibition at 5 µM: Conc. 5 μM; for inhibition at 5 µM / inhibition at 25 µM: read-out: Relative Percent Inhibition; for inhibition at 25 µM: Conc. 25 μM
T1 construct: from 35 mg of tumor was the source for both aromatase; from tissue; host or cells: Tumor grown from subcutaneously injected human JAr choriocarcinoma cells in athymic nude mice; 800×g supernatant ('cytosol')
T1 sequence (P11511 1-503): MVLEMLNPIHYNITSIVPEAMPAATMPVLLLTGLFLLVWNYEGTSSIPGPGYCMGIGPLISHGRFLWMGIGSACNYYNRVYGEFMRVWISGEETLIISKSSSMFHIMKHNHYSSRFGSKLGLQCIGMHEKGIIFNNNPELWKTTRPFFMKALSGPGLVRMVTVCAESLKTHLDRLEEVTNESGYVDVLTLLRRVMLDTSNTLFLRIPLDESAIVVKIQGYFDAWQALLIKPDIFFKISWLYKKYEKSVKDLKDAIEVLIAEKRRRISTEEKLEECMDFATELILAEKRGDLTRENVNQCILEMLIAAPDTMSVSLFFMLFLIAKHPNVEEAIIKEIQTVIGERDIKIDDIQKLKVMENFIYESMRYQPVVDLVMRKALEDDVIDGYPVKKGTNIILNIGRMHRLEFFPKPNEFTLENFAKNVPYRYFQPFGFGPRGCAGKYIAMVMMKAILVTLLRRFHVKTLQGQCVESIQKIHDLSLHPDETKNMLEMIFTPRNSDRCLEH
Protocol: The aromatase inhibitory action of the compounds of the present invention may be determined using a radioenzymatic assay. An aromatase enzyme preparation is employed from the microsomal fraction isolated from human placenta. Stereospecific elimination of 1β and 2β tritium labels from androgen substrates such as testosterone or androstenedione, and the subsequent appearance of tritated water, is utilized to measure the rate of enzyme reaction during in vitro incubations.
In evaluating the inhibition of aromatase activity, the compounds of the present invention were tested according to the folowing procedure adapted from Johnston et al., J Steroid Biochem., Vol. 20, No. 6A, 1221 (1984) and Johnston, Steroids, Vol. 50, No. 1-3, 105 (1987). Athymic nude mice were subcutaneously injected with 1.5×10^6 human choriocarcinoma trophoblast (JAr) cells, which develop tumor masses of about 1 g in 10 days. Tumor aromatase activity was determined in vitro by measuring the ^3 H2 O resulting from the stereospecific release of 1-β ^3 H from 1-[^3 H]-androstenedione. Cytosol (800×g) from 35 mg of tumor was the source for both aromatase and 3β-steroid dehydrogenase (SDH):isomerase activity. The test compounds were incubated for varying intervals (0-3 hrs) with aromatase prior to the addition of 34 pmol 1-[3H]-androstenedione to start a 30 min aromatase activity assay. When 10-(2-propynyl)-19-norandrost-5-ene-3β,17β-diol was tested in vitro by this procedure the following results were observed: […]

[2] = test system: Aromatase Activity of JAr Tumor Xenografts in Nude Mice; assay: In vivo inhibition of aromatase activity of JAr tumor xenografts in nude mice; set-up: species or system human (JAr tumor cells) in athymic nude mice; conditions: vehicle PEG-200, 6 hr post-treatment
Protocol: In evaluating the inhibition of aromatase activity, the compounds of the present invention were tested according to the folowing procedure adapted from Johnston et al., J Steroid Biochem., Vol. 20, No. 6A, 1221 (1984) and Johnston, Steroids, Vol. 50, No. 1-3, 105 (1987). Athymic nude mice were subcutaneously injected with 1.5×10^6 human choriocarcinoma trophoblast (JAr) cells, which develop tumor masses of about 1 g in 10 days. Tumor aromatase activity was determined in vitro by measuring the ^3 H2 O resulting from the stereospecific release of 1-β ^3 H from 1-[^3 H]-androstenedione. Cytosol (800×g) from 35 mg of tumor was the source for both aromatase and 3β-steroid dehydrogenase (SDH):isomerase activity. The test compounds were incubated for varying intervals (0-3 hrs) with aromatase prior to the addition of 34 pmol 1-[3H]-androstenedione to start a 30 min aromatase activity assay. When 10-(2-propynyl)-19-norandrost-5-ene-3β,17β-diol was tested in vitro by this procedure the following results were observed:
The compound 10-(2-propynyl)-19-norandrost-5-ene-3β,17β-diol was also evaluated in vivo by treating nude mice with trophoblast tumors. At 6 hr post-treatment intervals, tumor aromatase activity was determined in an in vitro assay as discussed above. The vehicle for oral dosing was PEG-200.

C#CC[C@]12CC[C@H](O)CC1=CC[C@@H]1[C@@H]2CC[C@]2(C)[C@@H](O)CC[C@@H]12 [10-(2-propynyl)-19-norandrost-5-ene-3β,17β-diol]
inhibition at 5 µM ([1]; preincubation time 0 hr): 15.1%
inhibition at 5 µM ([1]; preincubation time 1 hr): 0%
inhibition at 5 µM ([1]; preincubation time 2 hr): 66.9%
inhibition at 5 µM ([1]; preincubation time 3 hr): 71.9%
inhibition at 25 µM ([1]; preincubation time 0 hr): 33.4%
inhibition at 25 µM ([1]; preincubation time 1 hr): 0%
inhibition at 25 µM ([1]; preincubation time 2 hr): 86.5%
inhibition at 25 µM ([1]; preincubation time 3 hr): 84.9%
type of aromatase inhibition (biphase response) ([1]; preincubation 0-3 hr, after enzymatic processing to a more reactive component): time-dependent inhibition of aromatase
Relative % Inhibition 6 hr Post-treatment ([2]; 7 mg/kg oral): 5.9 ± 3.0%
Relative % Inhibition 6 hr Post-treatment ([2]; 10 mg/kg oral): 27.5 ± 1.5%
Relative % Inhibition 6 hr Post-treatment ([2]; 30 mg/kg oral): 53.4 ± 7.8%
